Assays:
[1] = tested on: isolated rat bladder strips; experiment: Inhibition of contractions of isolated rat bladder strips; settings: strips stimulated with additional 15 mM KCl; for inhibition at 30 µM: maximum percentage inhibition of contractile activity, read-out: % Inhibition of Contractility @ 30 μM; for IC50: 0.5 h, concentration eliciting 50% inhibition of pre-drug contractile activity, 30 minute challenge per concentration, read-out: IC50
Method: The compounds of the examples were tested to determine their ability to inhibit contractions of isolated rat bladder strips. See Foster, C. […] Malmgren, A. et al. J.Urol.
Male Sprague-Dawley rats (150-200 g) were obtained from ACE animal suppliers. Animals were allowed free access to food and water.
Animals were euthanized by CO2 asphyxiation followed by a bilateral thoracotomy. […] The bladder was opened and then cut into strips 1-2 mm in width and 7-10 mm in length. The strips were subsequently suspended in a 10 ml tissue bath under an initial resting tension of 1.5 g. The strips were held in place by two surgical clips one of which was attached to a fixed hook while the other was attached to an isometric force transducer. […] The carbachol was then washed out and the tissue allowed to relax to its resting level of activity. Following a further 30 minute period of recovery an additional 15 mM KCl were introduced into the tissue bath. […] Following stabilization of this enhanced level of contractile activity, incremental increases in the concentration of test compound or vehicle were introduced into the tissue bath. Contractile activity was measured for each compound or vehicle concentration during the last minute of a 30 minute challenge.
Isometric force developed by the bladder strips was measured using a force transducer and recorded on a polygraph. Contractile activity was assessed by measuring either the average amplitude of the contractions (baseline to peak force) occurring during a one minute period or, preferably, by integrating the contractile activity with respect to time (one minute measuring period).
The percentage inhibition of contractile activity evoked by each concentration of a given test compounds was used to generate a concentration-response curve.

| Structure (SMILES) | melting point | IC50 [1] [nM] | inhibition at 30 µM [1] [%] |
| --- | --- | --- | --- |
| CC(C)CCC(=O)Nc1ccc2oc3c(c2c1)CCCC3 [Example 14, 4-METHYL-N-(6,7,8,9-TETRAHYDRO-DIBENZOFURAN-2-YL)-PENTANAMIDE] | 145.5 to 146 °C | 10000 to 20000 | – |
| CC(C)(C)CC(=O)Nc1ccc2oc3c(c2c1)CCC3 [Example 23, N-(2,3-DIHYDRO-1H-CYCLOPENTA[B]BENZOFURAN-7-YL)-3,3-DIMETHYL-BUTYRAMIDE] | 195.5 to 197 °C | 350 to 530 | – |
| CC(C)(C)C(=O)Nc1ccc2oc3c(c2c1)CCC3 [Example 24, N-(2,3-DIHYDRO-1H-CYCLOPENTA(b)BENZOFURAN-7-YL)-2,2-DIMETHYL-PROPIONAMIDE] | 188.5 to 190 °C | 1000 to 5000 | – |
| CC(C)CC(=O)Nc1ccc2oc3c(c2c1)CCC3 [Example 25, N-(2,3-DIHYDRO-1H-CYCLOPENTA[B]BENZOFURAN-7-YL)-3-METHYL-BUTYRAMIDE] | 162 to 163 °C | 3000 to 8000 | – |
| CC(C)(C)CC(=O)Nc1ccc2oc3c(c2c1)CCCCC3 [Example 26, 3,3-DIMETHYL-N-[7,8,9,10-TETRAHYDRO-6H-Benzo[B]-CYCLOHEPTA[d]FURAN-2-YL]BUTYRAMIDE] | 182 to 183 °C | 200 to 700 | – |
| O=C(CC1CCCCC1)Nc1ccc2oc3c(c2c1)CCCCC3 [Example 29, 2-CYCLOHEXYL-N-[7,8,9,10-TETRAHYDRO-6H-BENZO[B]-CYCLOHEPTA[d]FURAN-2-YL]ACETAMIDE] | 188 to 189 °C | 1000 to 10000 | – |
| CC(C)(C)CC(=O)Nc1ccc2oc3c(c2c1)CCCCCC3 [Example 62, 3,3-DIMETHYL-N-[6,7,8,9,10,11-HEXAHYDRO-BENZO[B]-CYCLOOCTA[D]FURAN-2-YL]BUTYRAMIDE] | 157 to 158 °C | 1000 to 5000 | – |
| CC(C)(C)C(=O)Nc1ccc2oc3c(c2c1)CCCCCC3 [Example 63, 2,2-DIMETHYL-N-[6,7,8,9,10,11-HEXAHYDRO-BENZO[B]-CYCLOOCTA[D]-FURAN-2-YL]PROPIONAMIDE] | 189 to 190 °C | 110 to 250 | – |
| CC(C)CC(=O)Nc1ccc2oc3c(c2c1)CCCCCC3 [Example 64, 3-METHYL-N-[6,7,8,9,10,11-HEXAHYDRO-BENZO[B]-CYCLOOCTA[D]-FURAN-2-YL]BUTYRAMIDE] | 154 to 155 °C | 100 to 500 | – |
| O=C(CC1CCCCC1)Nc1ccc2oc3c(c2c1)CCCCCC3 [Example 65, 2-CYCLOHEXYL-N-[6,7,8,9,10,11-HEXAHYDRO-BENZO[B]-CYCLOOCTA[D]FURAN-2-YL]ACETAMIDE] | 180 to 181 °C | 4000 to 10000 | – |

More lines, main results first:

| melting point | IC50 [1] [nM] | Structure (SMILES) | inhibition at 30 µM [1] [%] |
| --- | --- | --- | --- |
| 197 to 197.5 °C | – | COc1ccc(C(=O)Nc2ccc3oc4c(c3c2)CCCC4)cc1 [Example 13, 4-METHOXY-N-(6,7,8,9-TETRAHYDRO-DIBENZOFURAN-2-YL)-BENZAMIDE] | 15 to 25 |
| 279 to 280 °C | – | O=C(Nc1ccc2oc3c(c2c1)CCCC3)c1ccc([N+](=O)[O-])cc1 [Example 15, 4-NITRO-N-(6,7,8,9-TETRAHYDRO-DIBENZOFURAN-2-YL)-BENZAMIDE] | 10 to 20 |
| 207 to 208 °C | – | Nc1ccc(C(=O)Nc2ccc3oc4c(c3c2)CCCC4)cc1 [Example 16, 4-AMINO-N-(6,7,8,9-TETRAHYDRO-DIBENZOFURAN-2-YL)-BENZAMIDE] | 5 to 10 |
| 178 to 180 °C | – | O=C(Nc1ccc2oc3c(c2c1)CCCC3)c1ccccc1 [Example 18, N-(6,7,8,9-TETRAHYDRO-DIBENZOFURAN-2-YL)-BENZAMIDE] | 40 to 50 |
| 208 to 209 °C | 100 to 400 | CC(C)(C)C(=O)Nc1ccc2oc3c(c2c1)CCCCC3 [Example 27, 2,2-DIMETHYL-N-(6,7,8,9-TETRAHYDRO-5H-10-OXA-BENZO[A]AZULEN-3-YL)-PROPIONAMIDE] | – |
| 162 to 163 °C | 1000 to 5000 | CC(C)CC(=O)Nc1ccc2oc3c(c2c1)CCCCC3 [Example 28, 3-METHYL-N-[7,8,9,10-TETRAHYDRO-6H-Benzo[B]-Cyclohepta[D]FURAN-2-YL]BUTYRAMIDE] | – |
| 310 to 312 °C (dec.) | 4000 to 5000 | CC(C)(C)NC(=O)Nc1ccc2oc3c(c2c1)CCCC3 [Example 83, 1-TERT-BUTYL-3-(6,7,8,9-TETRAHYDRO-DIBENZOFURAN-2-YL)-UREA] | – |
| 179 to 180 °C | 3000 to 5000 | CCN(CC)C(=O)Nc1ccc2oc3c(c2c1)CCCC3 [Example 84, 1,1-DIETHYL-3-(6,7,8,9-TETRAHYDRO-DIBENZOFURAN-2-YL)-UREA] | – |
